Measurements reported in patent publication US20180230143A1, “INHIBITORS OF NHR2 AND/OR RUNX1/ETO-TETRAMERIZATION” (Heinrich-Heine-Universität Düsseldorf, priority 2013, published 2018).
Read-outs that look alike come from different tables or passages of the source.

Legend:
[1] = target: T1, RUNX1-NHR2 protein (Homo sapiens, UniProt Q01196+Q06455); experiment: ELISA: tetramer-dependent binding of RUNX1-NHR2 protein to immobilized RUNX3 oligonucleotide; format: biochemical; conditions: for inhibition of tetramer-dependent binding of the RUNX1-NHR2 protein to immobilized RUNX3 oligonucleotide, ELISA: [P1]=500 μM and [PPIM]=2000 μM in ELISA; for IC50: inhibition of tetramerization of the RUNX1-NHR2 protein
T1 construct: the wild type NHR2 tetramerization domain or the homologous BCR tetramerization domain (highlighted) are optionally enclosed by an N-terminal RUNX1 domain; His6 (C); made in house; host or cells: E. coli BL21(DE3)
Experimental: Preferably, for enzyme-linked immunosorbent assays (ELISA), wells of a 96 well plate were coated with 100 ng streptavidin (Dianova) in PBS over night at 4° C. […] Binding of RUNX1-containing proteins to the R3 oligonucleotide was detected with a primary anti-myc antibody (9E10, Santa Cruz) and a secondary HRP-coupled antibody (donkey anti-mouse IgG-HRP, Santa Cruz). ELISA was developed using the Sure Blue TMB Microwell Peroxidase substrate (KLP), and the reaction was stopped with sulfuric acid (1 N). Absorption at 450 nm and 650 nm was measured with the Spectra Max 340, Molecular Devices. Preferably, the ELISA assay is as further described in the experimental section.
The inhibition of NHR2 tetramerization was measured in vitro by tetramer-dependent binding of a RUNX1-NHR2 protein construct to an immobilized oligonucleotide derived from the RUNX3 promoter sequence in ELISA and ABCD assays. […] Furthermore, the influence of the inhibitors on the viability of RUNX1/ETO-dependent SKNO-1 cells was determined; as a control RUNX1/ETO-independent U937 cells were used.
The principle of the biochemical assays for measuring inhibition of NHR2 tetramerization is illustrated in FIG. 1. NHR2 tetramerization and its inhibition was measured in a purpose-built sandwich ELISA (enzyme-linked immunosorbent assay: FIG. 1A). • i) The RUNX1-NHR2 tetramer specifically binds to the biotinylated RUNX3-oligonucleotide (RUNX3-oligo^bio) that is immobilized on a streptavidine coated surface (SA). Disrupting the RUNX1-NHR2 tetramer into dimers leads to a release of the RUNX1-NHR2 protein from the surface. Antibody-conjugated horseradish peroxidase (HRP) binds to a primary anti-myc antibody (α-myc AB) that binds to the immobilized myc-labeled RUNX1-NHR2 tetramer. HRP catalyzes the conversion of 3,3′,5,5′-tetramethylbenzidine (TMB) to 3,3′,5,5-tetramethylbenzidine diimine.
Wells of a 96 well plate were coated with 100 ng streptavidin (Dianova) in PBS over night at 4° C. […] RUNX1-containing proteins were incubated with synthetic peptides or chemical compounds in binding buffer (25 mM HEPES, pH 7.5, 50 mM KCl, 1 mM EDTA, pH 8.0, 10 mM MgCl2, 5% glycerol, 1 mM DTT) in the presence of 1 μg salmon sperm and 1% IGEPAL CA-630 for 5 h and subsequently added to the streptavidin-bound R3 oligonucleotide for 15 min on the 96 well plate. Binding of RUNX1-containing proteins to the R3 oligonucleotide was detected with a primary anti-myc antibody (9E10, Santa Cruz) and a secondary HRP-coupled antibody (donkey anti-mouse IgG-HRP, Santa Cruz). ELISA was developed using the Sure Blue TMB Microwell Peroxidase substrate (KLP), and the reaction was stopped with sulfuric acid (1 N). Absorption at 450 nm and 650 nm was measured with the Spectra Max 340, Molecular Devices.

[2] = target: T1, RUNX1-NHR2 protein; experiment: ABCD (avidin, biotin, complex, DNA) assay with RUNX1-NHR2 protein; format: biochemical; conditions: for inhibition at 1000 µM: read-out: ABCD Inhibition [%] NHR2; for inhibition of tetramer-dependent binding of the RUNX1-NHR2 protein to immobilized RUNX3 oligonucleotide, ABCD: c=1100 μM in ABCD assay
Experimental: (§1) Oligonucleotides were annealed to the corresponding unmodified antisense oligonucleotide to generate the RUNX1 binding site. Purified RUNX1 proteins were pre-incubated with a compound for 1 h at 4° C. Similarly the biotinylated double-stranded oligonucleotides were pre-incubated with streptavidin coated magnetic beads (Dynabeads M-280 Streptavidin, Invitrogen) for 1 h at 4° C. Protein/compound samples and beads with bound oligonucleotide were incubated in binding buffer (25 mM HEPES, pH 7.5, 50 mM KCl, 1 mM EDTA, pH 8.0, 10 mM MgCl2, 5% glycerol, 1 mM DTT) in the presence of 2% IGEPAL CA-630, 1 μg of salmon sperm, and 0.1% BSA for […]. After washing three times, the bound proteins were eluted from beads in SDS-PAGE sample buffer and resolved on SDS-PAGE followed by immunoblotting with a primary anti-myc (9E10, Santa Cruz) antibody and a secondary HRP-coupled antibody (goat anti-mouse IgG-HRP, Santa Cruz).

[3] = target: T2, RUNX1-BCR protein (Homo sapiens, UniProt P11274+Q01196); experiment: ABCD (avidin, biotin, complex, DNA) assay with RUNX1-BCR protein; format: biochemical; conditions: for inhibition at 1000 µM: read-out: ABCD Inhibition [%] BCR; for inhibition of binding of the RUNX1-BCR protein, ABCD: c=1100 μM in ABCD assay
T2 construct: replacing the NHR2 domain of the construct with the homologous BCR tetramerization domain (RUNX1-BCR protein); His6 (C); made in house; host or cells: E. coli BL21(DE3)
Experimental: as §1

[4] = tested on: SKNO-1 cells; experiment: Cell survival assay (XTT), RUNX1/ETO-dependent SKNO-1 cells; format: cell-based; conditions: daily treated with 1 μM or 10 μM; XTT at days 3, 5, and 7
Experimental: Cell proliferation and viability were measured with the cell proliferation kit II (XTT, Roche Applied Science). The XTT assay was performed at days 3, 5, and 7. […] SKNO-1 cells were cultured in RPMI 1640+10% FCS and 7 ng ml^−1 human GM-CSF. […] Cell proliferation and viability were measured with the cell proliferation kit II (XTT, Roche Applied Science). 3000 cells per well were cultured in a 96 well plate and daily treated with compounds at different concentrations. The XTT assay was performed at days 3, 5, and 7.

[5] = tested on: SKNO-1 cells; experiment: FACS analysis of CD11b expression, SKNO-1 cells; format: cell-based; conditions: 25 μM for four days, at the day of injection
Experimental: (§3) For the experiment, the SCID- or SCUD-gamma chain mouse model was used. The experiment investigates if the transplantation of the AML cell line SKNO-1 after treatment with either 7.44 or 7.38 leads to reduced tumor growth. […] For this, the cells were treated in vitro with 25 μM of the respective compound for four days. Furthermore, untreated SKNO-1 and CML cell lines were used. […] At day 5 the number of living cells was determined, and 5×10^5 SKNO-1 cells or 5×10^5 K562 cells were injected per transplant. Per mouse, untreated and treated cells were injected into the left and right flank, respectively.
At the day of injection, the expression of the surface marker CD11b, a measure for cell differentiation, was determined (FIG. 5E) as was the rate of apoptosis (FIG. 5F).

[6] = tested on: SKNO-1 cells; experiment: Xenotransplantation of pre-treated SKNO-1 cells in SCID mice; format: in vivo, mouse; conditions: cells treated in vitro with 25 μM for four days, injected subcutaneously, versus untreated cells
Experimental: The effect of the inhibition of NHR2 tetramerization was measured in a mouse model (xenotransplantation of SKNO-1 and K562 cells in SCID mice).
as §3
For determining the tumor volume, the length and the width of the tumor was measured twice weekly, starting one week after the transplantation (FIGS. 5A and 5B). […] At the end of the experiment, the tumors were freed and weighed (FIGS. 5C and 5D).

[7] = target: T2, RUNX1-BCR protein; experiment: ELISA: tetramer-dependent binding of RUNX1-BCR protein to immobilized RUNX3 oligonucleotide (selectivity control); format: biochemical; conditions: for inhibition of binding of the RUNX1-BCR protein, ELISA: [P1]=500 μM and [PPIM]=2000 μM in ELISA
[8] = target: T3, NHR2 protein (Homo sapiens, UniProt Q06455); experiment: BS3 cross-linking assay of NHR2 oligomers; format: biochemical; conditions: for inhibition of NHR2 tetramerization (reduction of BS3 cross-linked NHR2 oligomers): c=1100 μM
T3 construct: the wild type NHR2 tetramerization domain or the homologous BCR tetramerization domain (highlighted) are optionally enclosed by an N-terminal RUNX1 domain; His6 (C); made in house; host or cells: E. coli BL21(DE3)
T3 sequence (Q06455 334-400): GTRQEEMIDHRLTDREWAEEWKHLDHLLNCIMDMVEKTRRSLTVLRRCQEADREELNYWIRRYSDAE
Experimental: (§2) Preferably, for the cross-linking assay, purified NHR2 protein or NHR2-containing protein (5 μM) was incubated with the peptides at 4° C. for 1 h. The BS^3 (Bis[sulfosuccinimidyl] suberate) crosslink-reaction was performed at a final concentration of 1 mM for 30 min at RT. Tris-HCl (0.05 M, pH 7.4) was added to the reaction mix and incubated for 10 min to stop the reaction. Protein-oligomer nation was analyzed by western blotting. For protein detection, the membrane was incubated with a primary anti-myc antibody (9E10, Santa Cruz) and a secondary HRP-coupled antibody (goat anti-mouse IgG-HRP, Santa Cruz). Preferably, the cross-linking assay is as further described in the experimental section.
as §2, with “Purified” for “Preferably, for the cross-linking assay, purified”, “NHR2” for “NHR2 protein or NHR2-containing”, “Protein-oligomerization” for “Protein-oligomer nation”, “Cruz).” for “Cruz). Preferably, the cross-linking assay is as further described in the experimental section.”

[9] = measured at 2 mM concentration, RUNX1-NHR2 protein, read-out: ELISA Inhibition [%] NHR2
[10] = relative inhibition at 1 mM inhibitor concentration, RUNX1-NHR2 protein
[11] = relative inhibition at 1 mM inhibitor concentration, RUNX1-BCR

T2 sequence (Q01196+P11274 fused): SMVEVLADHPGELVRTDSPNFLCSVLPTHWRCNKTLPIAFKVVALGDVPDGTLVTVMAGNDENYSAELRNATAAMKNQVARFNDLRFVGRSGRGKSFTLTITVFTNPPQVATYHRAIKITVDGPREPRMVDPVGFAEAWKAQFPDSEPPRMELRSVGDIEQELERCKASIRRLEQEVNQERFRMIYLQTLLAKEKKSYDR
T1 sequence (Q01196+Q06455 fused): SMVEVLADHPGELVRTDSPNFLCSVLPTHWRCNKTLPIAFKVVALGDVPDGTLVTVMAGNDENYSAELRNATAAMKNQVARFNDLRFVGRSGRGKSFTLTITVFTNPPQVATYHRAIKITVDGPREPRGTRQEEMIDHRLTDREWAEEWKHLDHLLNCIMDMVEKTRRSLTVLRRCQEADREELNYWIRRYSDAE

Row | inhibition of tetramer-dependent binding of the RUNX1-NHR2 protein to immobilized RUNX3 oligonucleotide, ELISA [1] | IC50 [1] [µM] | inhibition at 2000 µM [1, 9] [%] | inhibition at 1000 µM [2, 10] [%] | inhibition at 1000 µM [3, 11] [%] | Compound | inhibition of binding of the RUNX1-BCR protein, ELISA [7] | inhibition of tetramer-dependent binding of the RUNX1-NHR2 protein to immobilized RUNX3 oligonucleotide, ABCD [2] | inhibition of binding of the RUNX1-BCR protein, ABCD [3] | inhibition of NHR2 tetramerization (reduction of BS3 cross-linked NHR2 oligomers) [8] | other results
1 | not | > 2000 | 4 | 20.1 | 26.1 | Cc1c(C(=O)O)[nH]c(/C=C/C(=O)O)nc1=O [Compound 7.38, (E)-2-(2-carboxyvinyl)-5-methyl-6-oxo-3,6-dihydropyrimidine-4-carboxylic acid, reference compound] | – | – | – | – | proliferation of SKNO-1 cells (XTT assay) [4]: did not affect; increase of the CD11b expression in SKNO-1 cells [5]: 2%; tumor growth (tumor volume) of transplanted SKNO-1 cells [6]: small reduction
2 | – | – | 94.4 | 57.7 | 28.5 | Cc1ccc(OCC(=O)O)c(OCC(=O)O)c1 [Compound 7.3, 2-[2-(carboxymethyloxy)-4-methyl-phenoxy]acetic acid] | – | – | – | – | inhibition at 2000 µM ([7]; measured at 2 mM concentration, RUNX1-BCR, read-out: ELISA Inhibition [%] BCR): 31.5%
3 | – | – | – | 49.4 | 11.8 | O=C(O)c1ccccc1OCc1cn2ccccc2n1 [Compound 2b, 2-(imidazo[1,2-a]pyridin-2-ylmethoxy)benzoic acid] | – | – | – | – | inhibition at 50 µM ([1]; measured at 50 μM concentration, RUNX1-NHR2 protein): 83.1%; inhibition at 50 µM ([7]; measured at 50 μM concentration, RUNX1-BCR): 41.5%
4 | – | > 2000 | – | – | – | Ac-VARRCAEAAREALNYAIR-NH2 [P3, reference compound] | – | – | – | neither P2, P3 nor the unrelated peptide CP inhibit NHR2 tetramerization | –
5 | selectively inhibit | 460 | – | – | – | Ac-VLRRCQEADREELNYWIR-NH2 [P1, reference compound] | is not inhibited | selectively inhibit | is not inhibited | inhibit NHR2 tetramerization | dose dependence of inhibition of NHR2 tetramerization (cross-linking) [8]: dose-dependent; IC50 ([8]; read-out: IC50 of inhibition of NHR2 tetramerization (cross-linking)): 250 µM; inhibition at 1000 µM ([1]; relative inhibition at 1 mM inhibitor concentration, RUNX1-NHR2 protein, read-out: ELISA Inhibition [%] NHR2): 42.8%; inhibition at 1000 µM ([7]; relative inhibition at 1 mM inhibitor concentration, RUNX1-BCR, read-out: ELISA Inhibition [%] BCR): 9.2%

Row | Compound | inhibition of tetramer-dependent binding of the RUNX1-NHR2 protein to immobilized RUNX3 oligonucleotide, ELISA [1] | IC50 [1] [µM] | inhibition at 2000 µM [1, 9] [%] | inhibition at 1000 µM [2, 10] [%] | inhibition at 1000 µM [3, 11] [%] | inhibition of binding of the RUNX1-BCR protein, ELISA [7] | inhibition of tetramer-dependent binding of the RUNX1-NHR2 protein to immobilized RUNX3 oligonucleotide, ABCD [2] | inhibition of binding of the RUNX1-BCR protein, ABCD [3] | inhibition of NHR2 tetramerization (reduction of BS3 cross-linked NHR2 oligomers) [8] | other results
6 | COc1cc(CC(C(=O)O)C(C)C(=O)c2ccc3c(c2)OCO3)cc(OC)c1OC (stereo not drawn) [Compound 7.18, 4-(benzo[d][1,3]dioxol-5-yl)-3-methyl-4-oxo-2-(3,4,5-trimethoxybenzyl)butanoic acid] | selectively inhibit | – | – | – | – | is not inhibited | selectively inhibit | is not inhibited | – | inhibition at 2000 µM ([1]; read-out: ELISA Inhibition [%] NHR2): 47.7%; inhibition at 2000 µM ([7]; read-out: ELISA Inhibition [%] BCR): -6.7%; inhibition at 1000 µM [2]: 80.2%; inhibition at 1000 µM [3]: -2.2%
